# Test results from PubChem BioAssay (NCI).
#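 Compound exposure: 48 hours, 5 concentrations, 96-well plates. TGI denotes the concentration required for complete inhibition of growth.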
# Tests used:
# Assay in all cases: growth of human tumour cells (NCI), 48 h
# HT29 colon = test system: HT29 colon
# MDA-MB-435 = test system: MDA-MB-435
# EKVX NSCLC = test system: EKVX NSCLC
# 786-0 renal = test system: 786-0 renal
# SW-620 colon = test system: SW-620 colon
# U251 CNS = test system: U251 CNS
# OVCAR-3 ovarian = test system: OVCAR-3 ovarian
# ACHN renal = test system: ACHN renal
# SF-268 CNS = test system: SF-268 CNS
# HOP-92 NSCLC = test system: HOP-92 NSCLC
# CCRF-CEM leukemia = test system: CCRF-CEM leukemia
# MDA-MB-231 breast = test system: MDA-MB-231 breast
# BT-549 breast = test system: BT-549 breast
# HOP-62 NSCLC = test system: HOP-62 NSCLC
# IGROV1 ovarian = test system: IGROV1 ovarian
Compound,TGI (HT29 colon) [µM],TGI (MDA-MB-435) [µM],TGI (EKVX NSCLC) [µM],TGI (786-0 renal) [µM],TGI (SW-620 colon) [µM],TGI (U251 CNS) [µM],TGI (OVCAR-3 ovarian) [µM],TGI (ACHN renal) [µM],TGI (SF-268 CNS) [µM],TGI (HOP-92 NSCLC) [µM],TGI (CCRF-CEM leukemia) [µM],TGI (MDA-MB-231 breast) [µM],TGI (BT-549 breast) [µM],TGI (HOP-62 NSCLC) [µM],TGI (IGROV1 ovarian) [µM]
O=C1c2cccc3cccc(c23)C(=O)N1CCCNCCCCNCCCN1C(=O)c2cccc3cccc(c23)C1=O,1.27,1.28,3.28,0.734,3.54,1.22,4.58,6.47,0.605,1.59,0.205,1.09,3.02,2.66,1.83
c1cc(-c2csc(-c3ccsc3)c2)cs1,> 100,> 100,> 100,> 100,> 100,> 100,> 100,> 100,> 100,> 100,> 100,> 100,> 100,> 100,> 100
NC(=O)C(c1ccccc1)N1OC2C(=O)N(Cc3ccccc3)C(=O)C2C1c1cccc(Oc2ccc(Cl)cc2)c1 (stereo not given),35.6,> 100,67.2,50,> 100,85.6,43.1,39.9,> 100,> 100,> 100,> 100,> 100,> 100,> 100
O=C1NCN(c2ccccc2)C12CCN(CCc1ccc3[nH]c(=S)[nH]c3c1)CC2,> 100,35.6,> 100,> 100,25.8,98.4,> 100,> 100,> 100,93.7,22,41.6,> 100,> 100,> 100
O=C1CSC(/C=C/c2ccccc2)N1c1ccc(-c2ccc(-n3c(-c4ccccc4)nc4ccccc4c3=O)cc2)cc1 (stereo not given),34,49.3,73.1,29.6,65.1,88.5,84.6,94.9,> 100,56.2,64.5,> 100,39.2,99.2,75.6
Cc1cc(C)nc(NS(=O)(=O)c2ccc(NN=c3c4ccccc4n(C)c4ccccc34)cc2)n1,> 100,69.1,97.7,> 100,> 100,> 100,> 100,77.4,> 100,> 100,77.6,> 100,> 100,> 100,> 100
OC(CC(CC(O)(C(F)(F)Cl)C(F)(F)Cl)=NNc1ccccc1)(C(F)(F)Cl)C(F)(F)Cl,> 10,> 10,7.35,> 10,> 10,> 10,6.38,9.12,7.44,5.19,> 10,6.63,5.69,7.95,> 10
C=C1CC(Cn2ccc(=O)[nH]c2=O)(c2ccc(-c3ccccc3)cc2)OC1=O (stereo not given),3.27,6.12,29.9,1.67,0.941,25,4.03,3.25,46.3,2.62,1.2,5.8,3.73,40.2,2.64
CCN(CC)c1ccc2c(c1)OC(=O)C(c1nnc(-c3ccc([N+](=O)[O-])cc3)o1)C2 (stereo not given),> 100,> 100,> 100,> 100,> 100,> 100,> 100,> 100,> 100,> 100,> 100,> 100,> 100,> 100,> 100
CC1CC(C)[C@H](O)C([C@H](O)CC2CC(=O)N(C)C(=O)C2)C1 (stereo not given in full),> 100,> 100,> 100,> 100,> 100,> 100,> 100,> 100,> 100,> 100,> 100,> 100,> 100,> 100,> 100
Nc1nc(Cl)c(N)c(NCC2(CO)CC(Cc3ccccc3)C2)n1 (stereo not given),> 100,60,> 100,> 100,> 100,> 56.7,> 100,> 100,> 100,> 100,> 100,> 100,> 100,> 100,> 100
C[n+]1noc(/N=N\[O-])c1-c1cc(-c2c(/N=N\[O-])on[n+]2C)cc(-c2c(/N=N/[O-])on[n+]2C)c1,> 100,> 100,> 100,> 100,> 100,> 100,> 100,> 100,> 100,> 100,> 100,> 100,> 100,> 100,> 100
CO[C@H]1O[C@@H]2CO[C@@H](c3ccccc3)O[C@H]2[C@@H]2CC=CCC[C@]12O,> 100,> 100,> 100,> 100,> 100,> 100,> 100,> 100,51,> 100,> 100,> 100,69,> 100,> 100
C[C@]12CCC3c4ccc(O)cc4CC[C@H]3C1CC(=O)N(N)C2=O (stereo not given in full),> 100,> 100,> 100,> 100,> 100,> 100,> 100,> 100,> 100,> 100,> 100,> 100,> 100,> 100,> 100
Nc1nc(N)c(C2=CCN(Cc3ccccc3)CC2)c(=O)[nH]1,> 100,> 100,> 100,> 100,> 100,> 100,> 100,> 100,> 100,> 100,> 100,> 100,> 100,> 100,> 100
CCOC(=O)N1CCN(c2c(C)nc(C)[nH]c2=O)CC1,> 100,> 100,> 100,> 100,> 100,> 100,> 100,> 100,> 100,> 100,> 100,> 100,> 100,> 100,> 100
CC1CC(=O)Nc2cc(Cl)ccc2N1C(=O)C1CC1 (stereo not given),> 100,> 100,> 100,> 100,> 100,> 100,> 100,> 100,> 100,> 100,> 100,> 100,> 100,> 100,> 100
CC(=O)NC1=C(C)C(=O)c2c(nc3n2CCC3OC(=O)c2ccccc2)C1=N (stereo not given),3.96,0.319,6,3.65,5.17,9.45,5.71,3.13,6.28,5.47,9.71,6.45,1.65,7.28,3.58
